Measured values: patent publication US20240285670A1, “THERAPEUTIC TREATMENT OF TUMORS BY BLOCKING THE HEME SYNTHESIS-EXPORT AXIS” (Università degli Studi di Torino, priority 2021, published 2024)

Assays:
SH-SY5Y cells = assay: Mitochondrial ATP levels in SHSY-5Y cells; format: cell-based, human; details: FLVCR1a-silenced vs scramble shRNA SH-SY5Y cells
Description: Results were expressed as nmol NAD*/min/mg mitochondrial protein for complex I, nmol reduced cytochrome c/min/mg mitochondrial protein for complexes II-III, nmol oxidized cytochrome c/min/mg mitochondrial protein for complex IV. Data represent mean±SEM, n=3. For statistical analyses, an unpaired Student's t-test was used; *=p<0.05, **=p<0.01, *=p<0.001. […] Results are expressed as nmol/mg mitochondrial proteins. Data represent mean±SEM, n=3. For statistical analyses, an unpaired Student's t-test was used; *=p<0.05. […] Results are expressed as pmol CO2/h/mg protein. Data represent mean±SEM, n=3. For statistical analyses, an unpaired Student's t-test was used; **=p<0.01. […] Results were expressed as nmol NAD*/min/mg mitochondrial protein for complex I, nmol reduced cytochrome c/min/mg mitochondrial protein for complexes II-III, nmol oxidized cytochrome c/min/mg mitochondrial protein for complex IV. […] Results are expressed as nmol/mg mitochondrial proteins. […] Results are expressed as pmol CO2/h/mg protein. […] (H) TCA cycle enzymes activities are reported in boxes and expressed as mU/mg mitochondrial proteins. […] Results were expressed as nmol NAD^+/min/mg mitochondrial protein for complex I, nmol reduced cytochrome c/min/mg mitochondrial protein for complexes II-III, nmol oxidized cytochrome c/min/mg mitochondrial protein for complex IV. […] Results are expressed as nmol/mg mitochondrial proteins. […]

C80 cells = assay: Flow cytometric analysis of apoptosis in C80 cells; format: cell-based, human; details: FLVCR1a-silenced vs scramble shRNA, synchronized C80 cells
Description: (A) Proliferation of Caco2 cells assessed by crystal violet staining at the indicated days; bar=1000 μm. […] Staining quantification is reported in the bar graph as percentage of crystal violet stained area. Data represent mean±SEM, n=4. For statistical analyses, a two-way analysis of variance was used, followed by the Bonferroni correction for multiple group comparisons; *=p<0.05, ***=p<0.001. (B) Caco2 cells viability the day of plating (day 0) and three days after plaiting (day 3). The measure is considered a readout of cell proliferation. […] Data represent mean±SEM, n=3 wells. For statistical analyses, a two-way analysis of variance was used, followed by the Bonferroni correction for multiple group comparisons; *=p<0.05, **=p<0.01. (C, D, E) Representative flow cytometric analyses of apoptosis in synchronized Caco2 (C), SKCO1 (D) and C80 (E) cells. […] Data represent mean±SEM, n=4 wells pooled from two independent experiments. For statistical analyses, an unpaired Student's t-test was used; *=p<0.05, **=p<0.01. […]
Stained cells were analyzed using a FACSCanto II cytofluorimeter and processed with BD FACSDIVA Software v8.1 (BD Biosciences, Milan, IT; http://www.bdbiosciences.com/instruments/software/facsdiva/index.jsp/ RRID:SCR_001456), acquiring at least 10,000 events per sample or 25,000 cells per sample for cell cycle experiments.

## FLVCR1a shRNA: shRNA specifically down-regulating FLVCR1a without targeting FLVCR1b; pLKO.1 lentiviral clone TRCN0000059599, antisense SEQ ID No.: 2 (antisense TTGCTAATGATGCTGTACTGG; sense CCAGTACAGCATCATTAGCAA)
SH-SY5Y cells
  mitochondrial ATP levels: increased mitochondrial ATP levels
C80 cells
  apoptosis: increased apoptosis
